Data reported in patent publication US4410516A, “1-N(αHydroxy-ω-aminoalkanoyl) derivatives of 5,3',4'-trideoxy- or 5,3', 4'-trideoxy-6'-N- methyl- or 5, 3', 4',6"-tetradeoxykannamyci B and production thereof” (Zaidan Hojin Biseibutsu Kagaku Kenkyu Kai, priority 1981, dated 1983).
≈ marks a conversion by molar mass, not a printed value. Where two headings read alike, the source gives them in different places.

Experiments:
[1] = tested on: Pseudomonas aeruginosa PST1; assay: Minimum inhibitory concentration, serial dilution on nutrient agar; assay type: cell-based
[2] = tested on: Pseudomonas aeruginosa TI-13; assay: as above; assay type: cell-based
[3] = tested on: Escherichia coli K-12; assay: as above; assay type: cell-based
[4] = tested on: Pseudomonas aeruginosa A3; assay: as above; assay type: cell-based; conditions: 37° C., 18 hours incubation
[5] = tested on: Pseudomonas aeruginosa H9; assay: as above; assay type: cell-based
[6] = tested on: Bacillus subtilis PCI 219; assay: as above; assay type: cell-based; conditions: PCI219, 37° C., 18 hours incubation
[7] = tested on: Escherichia coli K-12 ML 1410; assay: as above; assay type: cell-based
[8] = tested on: Escherichia coli NIHJ; assay: as above; assay type: cell-based
[9] = tested on: Serratia SOU; assay: as above; assay type: cell-based; conditions: 37° C., 18 hours incubation
[10] = tested on: Proteus vulgaris OX19; assay: as above; assay type: cell-based; conditions: 37° C., 18 hours incubation
[11] = tested on: Sarcina lutea PCI 1001; assay: as above; assay type: cell-based; conditions: Micrococcus luteus
[12] = tested on: Serratia 4; assay: as above; assay type: cell-based; conditions: 37° C., 18 hours incubation
[13] = tested on: Providencia Pv 16; assay: as above; assay type: cell-based; conditions: PV16, 37° C., 18 hours incubation
[14] = tested on: Shigella dysenteriae JS 11910; assay: as above; assay type: cell-based; conditions: JS11910, 18 h
[15] = tested on: Salmonella typhi T-63; assay: as above; assay type: cell-based; conditions: Salmonella enterica, 18 h
[16] = tested on: Staphylococcus epidermidis 109; assay: as above; assay type: cell-based; conditions: Staphylococcus epidermidis, 109; nutrient agar, 37° C., 18 hours incubation; read-out: MIC
[17] = tested on: Escherichia coli K-12 LA 290 R56; assay: as above; assay type: cell-based; conditions: K12LA290R56, 18 h
[18] = tested on: Staphylococcus aureus AP01; assay: as above; assay type: cell-based; conditions: 37° C., 18 hours incubation
[19] = tested on: Pseudomonas aeruginosa 99; assay: as above; assay type: cell-based
[20] = tested on: Staphylococcus aureus Smith; assay: as above; assay type: cell-based; conditions: 37° C., 18 hours incubation
[21] = tested on: Bacillus anthracis; assay: microbe, parasite or virus in culture; assay type: cell-based; conditions: 18 h
[22] = tested on: Pseudomonas aeruginosa H11; assay: Minimum inhibitory concentration, serial dilution on nutrient agar; assay type: cell-based
[23] = tested on: Escherichia coli JR66/W677; assay: as above; assay type: cell-based
[24] = tested on: Bacillus cereus ATCC 10702; assay: as above; assay type: cell-based
[25] = tested on: Salmonella enteritidis 1891; assay: as above; assay type: cell-based; conditions: Salmonella enterica
[26] = tested on: Escherichia coli K-12 ML 1410 R81; assay: as above; assay type: cell-based; conditions: 18 h
[27] = tested on: bacteria; conditions: in words, earlier work / other filings; cited from earlier work
[28] = TI13, nutrient agar, 37° C., 18 hours incubation, read-out: MIC
[29] = K12, nutrient agar, 37° C., 18 hours incubation, read-out: MIC
[30] = nutrient agar, 37° C., 18 hours incubation, read-out: MIC
[31] = PCI1001, nutrient agar, 37° C., 18 hours incubation, read-out: MIC
[32] = Pseudomonas aeruginosa, 99, nutrient agar, 37° C., 18 hours incubation, read-out: MIC
[33] = ATCC10702, nutrient agar, 37° C., 18 hours incubation, read-out: MIC
[34] = PST1, nutrient agar, 37° C., 18 hours incubation, read-out: MIC
[35] = Pseudomonas aeruginosa, 99, 18 h

Compound | MIC [2, 28] [µg/mL] | MIC [4] [µg/mL] | MIC [6] [µg/mL] | MIC [9] [µg/mL] | MIC [10] [µg/mL] | MIC [12] [µg/mL] | MIC [13] [µg/mL] | MIC [14] [µg/mL] | MIC [15] [µg/mL] | MIC [16] [µg/mL] | MIC [17] [µg/mL] | MIC [18] [µg/mL] | MIC [20] [µg/mL] | MIC [21] [µg/mL] | MIC ([22]; H11, 18 h) [µg/mL] | MIC ([25]; 18 h) [µg/mL] | MIC [1, 34] [µg/mL] | MIC ([5]; H9, 18 h) [µg/mL] | MIC ([7]; K12ML1410, 18 h) [µg/mL] | MIC ([23]; JR66/W677, 18 h) [µg/mL] | other results
NCC(O)C(=O)N[C@@H]1C[C@H](N)[C@@H](O[C@H]2O[C@H](CN)CC[C@H]2N)C[C@H]1O[C@H]1O[C@H](CO)[C@@H](O)[C@H](N)[C@H]1O (stereo partly drawn) [AHP-trideoxyKMB, 1-N-[(RS)-3-amino-2-hydroxypropionyl]-5,3',4'-trideoxykanamycin B] | 3.13 (≈ 5.99 µM) | 0.78 (≈ 1.49 µM) | < 0.2 | > 100 | 0.78 (≈ 1.49 µM) | 25 (≈ 47.8 µM) | 25 (≈ 47.8 µM) | 6.25 (≈ 12 µM) | 50 (≈ 95.7 µM) | 0.78 (≈ 1.49 µM) | 1.56 (≈ 2.99 µM) | 0.78 (≈ 1.49 µM) | < 0.2 | < 0.2 | 6.25 (≈ 12 µM) | 6.25 (≈ 12 µM) |  |  |  |  | MIC ([1]; PST1, 18 h): 6.25 µg/mL (≈ 12 µM); MIC [3, 29]: 1.56 µg/mL (≈ 2.99 µM); MIC ([5]; H9, nutrient agar, 37° C., 18 hours incubation, read-out: MIC): 3.13 µg/mL (≈ 5.99 µM); MIC ([7]; K12ML1410, nutrient agar, 37° C., 18 hours incubation, read-out: MIC): 1.56 µg/mL (≈ 2.99 µM); MIC [8, 30]: 1.56 µg/mL (≈ 2.99 µM); MIC [11, 31]: 0.78 µg/mL (≈ 1.49 µM); MIC [19, 32]: 3.13 µg/mL (≈ 5.99 µM); MIC ([23]; JR66/W677, nutrient agar, 37° C., 18 hours incubation, read-out: MIC): 3.13 µg/mL (≈ 5.99 µM); MIC [24, 33]: 0.78 µg/mL (≈ 1.49 µM)
CNC[C@@H]1CC[C@@H](N)[C@@H](O[C@H]2C[C@@H](O[C@H]3O[C@H](CO)[C@@H](O)[C@H](N)[C@H]3O)[C@H](NC(=O)C(O)CN)C[C@@H]2N)O1 (stereo partly drawn) [AHP-trideoxyMKMB, 1-N-[(RS)-3-amino-2-hydroxypropionyl]-5,3',4'-trideoxy-6'-N-methylkanamycin B] |  | 0.78 (≈ 1.45 µM) | 0.39 (≈ 0.727 µM) | 50 (≈ 93.2 µM) | 0.78 (≈ 1.45 µM) | 12.5 (≈ 23.3 µM) | 50 (≈ 93.2 µM) | 6.25 (≈ 11.6 µM) | 3.13 (≈ 5.83 µM) | < 0.2 | 3.13 (≈ 5.83 µM) | < 0.2 | < 0.2 | < 0.2 |  | 6.25 (≈ 11.6 µM) | 25 (≈ 46.6 µM) | 3.13 (≈ 5.83 µM) | 3.13 (≈ 5.83 µM) | 6.25 (≈ 11.6 µM) | MIC ([2]; TI13, 18 h): 3.13 µg/mL (≈ 5.83 µM); MIC ([3]; K12, 18 h): 3.13 µg/mL (≈ 5.83 µM); MIC ([8]; 18 h): 3.13 µg/mL (≈ 5.83 µM); MIC [11, 31]: 0.78 µg/mL (≈ 1.45 µM); MIC [19, 32]: 12.5 µg/mL (≈ 23.3 µM); MIC ([22]; H11, nutrient agar, 37° C., 18 hours incubation, read-out: MIC): 12.5 µg/mL (≈ 23.3 µM); MIC [24, 33]: 1.56 µg/mL (≈ 2.91 µM); MIC [26]: 3.13 µg/mL (≈ 5.83 µM)
CNC[C@@H]1CC[C@@H](N)[C@@H](O[C@H]2C[C@@H](O[C@H]3O[C@H](CO)[C@@H](O)[C@H](N)[C@H]3O)[C@H](NC(=O)[C@@H](O)CCCN)C[C@@H]2N)O1 [AHV-trideoxyMKMB, 1-N-[(S)-5-amino-2-hydroxyvaleryl]-5,3',4'-trideoxy-6'-N-methylkanamycin B] |  | 0.39 (≈ 0.691 µM) | < 0.2 | 50 (≈ 88.5 µM) | 0.78 (≈ 1.38 µM) | 12.5 (≈ 22.1 µM) | 25 (≈ 44.3 µM) | 6.25 (≈ 11.1 µM) | 3.13 (≈ 5.54 µM) | < 0.2 | 1.56 (≈ 2.76 µM) | 0.39 (≈ 0.691 µM) | < 0.2 | < 0.2 | 6.25 (≈ 11.1 µM) | 3.13 (≈ 5.54 µM) | 12.5 (≈ 22.1 µM) | 3.13 (≈ 5.54 µM) | 3.13 (≈ 5.54 µM) | 3.13 (≈ 5.54 µM) | MIC ([2]; TI13, 18 h): 1.56 µg/mL (≈ 2.76 µM); MIC ([3]; K12, 18 h): 1.56 µg/mL (≈ 2.76 µM); MIC ([8]; 18 h): 1.56 µg/mL (≈ 2.76 µM); MIC ([11]; PCI1001, 18 h): 1.56 µg/mL (≈ 2.76 µM); MIC [19, 35]: 6.25 µg/mL (≈ 11.1 µM); MIC ([24]; ATCC10702, 18 h): 1.56 µg/mL (≈ 2.76 µM); MIC [26]: 3.13 µg/mL (≈ 5.54 µM)
NCC[C@H](O)C(=O)N[C@@H]1C[C@H](N)[C@@H](O[C@H]2O[C@H](CN)CC[C@H]2N)[C@H](O)[C@H]1O[C@H]1O[C@H](CO)[C@@H](O)[C@H](N)[C@H]1O [Habekacin, 1-N-[(S)-4-amino-2-hydroxybutyryl]-3',4'-dideoxykanamycin B, reference compound] | 3.13 (≈ 5.66 µM) | 3.13 (≈ 5.66 µM) | < 0.2 | > 100 | 0.78 (≈ 1.41 µM) | 50 (≈ 90.5 µM) | 25 (≈ 45.2 µM) | 12.5 (≈ 22.6 µM) | 1.56 (≈ 2.82 µM) | 0.78 (≈ 1.41 µM) | 3.13 (≈ 5.66 µM) | 0.78 (≈ 1.41 µM) | < 0.2 | < 0.2 | 12.5 (≈ 22.6 µM) |  | 25 (≈ 45.2 µM) | 6.25 (≈ 11.3 µM) | 6.25 (≈ 11.3 µM) | 6.25 (≈ 11.3 µM) | antibacterial activity [27]: effective against dibekacin-resistant bacteria; MIC [3, 29]: 3.13 µg/mL (≈ 5.66 µM); MIC [8, 30]: 3.13 µg/mL (≈ 5.66 µM); MIC ([11]; PCI1001, 18 h): 1.56 µg/mL (≈ 2.82 µM); MIC [19, 35]: 6.25 µg/mL (≈ 11.3 µM); MIC ([24]; ATCC10702, 18 h): 1.56 µg/mL (≈ 2.82 µM); MIC [25, 30]: 3.13 µg/mL (≈ 5.66 µM)
